This note sets out measurements from patent publication US20130203765A1, “DEUTERATED PYRROLOPYRIMIDINE COMPOUNDS AS INHIBITORS OF CDK4/6” (Novartis AG, priority 2010, published 2013).

Data set [1] can be described thus: Rat pharmacokinetics, intravenous injection 1 mg/kg. The data set is classed as in vivo, Sprague Dawley rats. As to conditions: for AUC0-7 h / AUC0-7 h of mono-methyl metabolite: n=2, plasma, mean; for AUC0-7 h: dosed parent compound; for AUC0-7 h of mono-methyl metabolite: IV 1 mg/kg of the parent (Example 1 or Comparator A), metabolite measured. As to the method: (§1) The plasma was separated, frozen and later analyzed. […] In the case of Comparator A the plasma was analyzed for Comparator A and its mono-methyl metabolite, Comparator B. The quantitation of each metabolite and its parent compound was done by LC-MS/MS with standard curves using authentic standards of each compound. The analysis allowed the characterization of the time-concentration profile and the calculation of pharmacokinetic (PK) parameters via non-compartmental methods.

Data set [2] is described as follows: Rat pharmacokinetics, oral gavage 5 mg/kg. The data set is classed as in vivo, Sprague Dawley rats. As to conditions: for Cmax / Tmax / AUC0-7 h: PO 5 mg/kg; for Cmax / Tmax: n=3, dosed parent compound; for Cmax / Tmax / AUC0-7 h / AUC0-7 h of mono-methyl metabolite / Tmax of mono-methyl metabolite: mean; for AUC0-7 h / AUC0-7 h of mono-methyl metabolite: n=3, plasma; for AUC0-7 h: dosed parent compound; for AUC0-7 h of mono-methyl metabolite: PO 5 mg/kg of the parent (Example 1 or Comparator A), metabolite measured; for Tmax of mono-methyl metabolite: PO 5 mg/kg of the parent, n=3, metabolite measured. As to the method:
as §1

In a further data set the target is CDK1/cyclin B (Homo sapiens, UniProt P06493). Nature of the data set: CDK1/cyclin B enzymatic activity assay (IMAP-FP). The class given is biochemical. As to conditions: 100 nM Tamra Histone-H1 peptide, 20 μM ATP, 120 min. As to the method:
CDK1/Cyclin B Enzymatic Activity Assay A 384-well microtiter IMAP-FP™ (Molecular Devices Trade Mark Technology) endpoint assay was used for CDK1/cyclin B kinase activity measurements. The same assay was used for IC50 determination of small molecule inhibitors. […] No. R8139), 10 μL substrate mixture of Tamra Histone-H1 peptide (Molecular Devices, Cat. No. R7384) and ATP (Amersham Pharmacia, Cat. No. 27-2056-01) in the 1× Reaction Buffer with 1 mM DTT freshly added. […] All reactions were run at room temperature in black 384-well flat-bottom Costar plates (Corning, Cat. […] No. R8139).

Another data set deals with T1, CDK4/cyclin D1 (Homo sapiens, UniProt P11802).
T1 construct: His6 (N); made in house; host or cells: Sf21 insect cells (baculovirus)
T1 sequence (P11802 whole entry): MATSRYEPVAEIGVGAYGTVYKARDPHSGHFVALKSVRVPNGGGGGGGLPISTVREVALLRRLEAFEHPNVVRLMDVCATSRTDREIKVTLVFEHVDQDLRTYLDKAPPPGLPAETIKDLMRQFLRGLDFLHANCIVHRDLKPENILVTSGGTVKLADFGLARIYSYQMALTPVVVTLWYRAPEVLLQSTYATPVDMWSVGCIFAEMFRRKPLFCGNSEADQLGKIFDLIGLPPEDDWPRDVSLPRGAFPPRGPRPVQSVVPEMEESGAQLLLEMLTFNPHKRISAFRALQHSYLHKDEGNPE
T1 sequence (P24385 whole entry partner): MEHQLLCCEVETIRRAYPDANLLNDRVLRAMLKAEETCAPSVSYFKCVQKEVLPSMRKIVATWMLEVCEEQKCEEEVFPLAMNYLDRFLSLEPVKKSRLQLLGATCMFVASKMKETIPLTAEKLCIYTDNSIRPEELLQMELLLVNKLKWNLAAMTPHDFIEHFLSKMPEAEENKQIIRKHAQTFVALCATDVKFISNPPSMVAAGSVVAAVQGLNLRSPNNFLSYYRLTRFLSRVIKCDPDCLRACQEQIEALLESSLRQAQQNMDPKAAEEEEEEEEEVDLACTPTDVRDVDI
Nature of the data set: CDK4/cyclin D1 enzymatic activity assay (Lance TR-FRET). The data set is classed as biochemical. Particulars: 0.3 nM CDK4/cyclin D1, 175 nM pRb152, 3 μM ATP, 60 min. How it is done:
The same assay was used for IC50 determination of small molecule inhibitors. In general, the kinase reactions were carried out in 30 μL volumes in the reaction solution containing the following: 2 uL compound (in 20% DMSO), 18 uL CDK4/cyclin D1 in Assay Buffer (50 mM HEPES, pH 7.5, 5 mM MgCl2, 2 mM MnCl2, 1 mM DTT, 0.05% BSA, 0.02% Tween-20), 10 uL of the mixture of pRb152 and ATP. […] All reactions were run at room temperature in 384-well white flat-bottom OptiPlates (Perkin Elmer, Cat. No. 6007290) for 60 min then were quenched by the addition of 10 μL of 120 mM EDTA. The signals were captured by the addition of 40 μL of the Detection Solution containing the following: Detection Buffer (50 mM HEPES, pH 7.5, 30 mM EDTA, 0.1% Triton x-100, 0.05% BSA), 70 ng/mL anti-phospho-pRb(S780) (Cell Signaling Technology, Cat. No. 9307S), 1 nM Lance Eu-W1024-Rabbit anti-IgG (Perkin Elmer, Cat. No. AD0082), and 20 nM SureLight™ Allophycocyanin-Streptavidin (Perkin Elmer, Cat. No. CR130-100). The resulted solutions were incubated at room temperature for 2 hours before read on the Evision Multilabel Reader (Perkin Elmer, Envision 2102-0010).

Chain of CDK1/cyclin B (P06493 whole entry, species assumed): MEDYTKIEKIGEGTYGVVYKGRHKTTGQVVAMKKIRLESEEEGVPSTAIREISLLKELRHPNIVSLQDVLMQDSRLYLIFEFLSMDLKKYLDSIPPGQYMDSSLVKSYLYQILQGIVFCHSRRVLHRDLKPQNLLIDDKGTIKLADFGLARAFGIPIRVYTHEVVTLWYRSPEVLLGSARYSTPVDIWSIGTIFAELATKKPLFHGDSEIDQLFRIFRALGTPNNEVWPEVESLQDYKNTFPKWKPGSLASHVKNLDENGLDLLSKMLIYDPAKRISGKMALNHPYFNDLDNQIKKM
Chain of CDK1/cyclin B (P14635 whole entry partner, species assumed): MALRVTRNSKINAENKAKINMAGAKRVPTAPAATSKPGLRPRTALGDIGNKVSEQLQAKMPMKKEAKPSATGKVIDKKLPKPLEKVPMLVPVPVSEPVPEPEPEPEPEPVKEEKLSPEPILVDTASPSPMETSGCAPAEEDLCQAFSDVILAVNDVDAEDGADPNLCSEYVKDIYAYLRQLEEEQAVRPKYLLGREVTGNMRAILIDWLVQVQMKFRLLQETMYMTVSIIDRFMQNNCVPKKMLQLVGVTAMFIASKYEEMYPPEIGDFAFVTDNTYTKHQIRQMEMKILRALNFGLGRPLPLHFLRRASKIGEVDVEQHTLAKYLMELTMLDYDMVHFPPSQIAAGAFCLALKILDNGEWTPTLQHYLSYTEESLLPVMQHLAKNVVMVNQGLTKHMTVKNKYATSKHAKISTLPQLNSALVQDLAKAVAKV

Turning to “7-cyclopentyl-2-(5-piperzin-1-yl-pyridin-2-ylamino)-7H-pyrrolo[2,3-d]pyrimidine-6-carboxylic acid dimethylamide-d5 [Example 1]”, the “VDss higher than VDss of Comparator A” value in data set [1] (1 mg/kg iv) is listed as “approximately 1.6 fold”. Besides, in data set [1] (IV 1 mg/kg, n=2, mean), the CL is 37 mL/min/kg, the T½ was 3.2 h and the Vdss came out at 8.6 L/kg. Also, in data set [1] (IV 1 mg/kg), the AUC0-7 h worked out at 0.883 µM·h. Moreover, the “Absolute oral bioavailability higher than Comparator A” value in data set [2] (5 mg/kg po) is listed as 1.8 fold. In data set [2] (PO 5 mg/kg vs IV 1 mg/kg), the “F (absolute oral bioavailability)” value is listed as 55%. Further, in data set [2], the peak concentration (Cmax) came out at 549 nM, the Tmax is 2 h and the AUC0-7 h was found to be 2.432 µM·h. The molecule also displayed a 50% inhibitory concentration (IC50) on CDK1/cyclin B ([…] CDK1/cyclin B) of over 15 µM.
`CN(C)C(=O)c1cc2cnc(Nc3ccc(N4CCNCC4)cn3)nc2n1C1CCCC1` [Comparator A, 7-cyclopentyl-2-(5-piperazin-1-yl-pyridin-2-ylamino)-7H-pyrrolo[2,3-d]pyrimidine-6-carboxylic acid dimethylamide, reference compound] showed a T½ in data set [1] (IV 1 mg/kg, n=2, mean) of 2.3 h. In addition, the AUC0-7 h in data set [1] (IV 1 mg/kg) worked out at 1.028 µM·h. In data set [1] (Sprague Dawley, plasma, IV 1 mg/kg, n=2, mean), the clearance stood at 34 mL/min/kg. Also, in data set [1] (Sprague Dawley, plasma, IV 1 mg/kg, n=2, mean, read-out: Vdss), the Vd came out at 5.4 L/kg. Further, in data set [2], the Tmax came out at 1.5 h and the AUC0-7 h worked out at 1.618 µM·h. Also, the bioavailability in data set [2] (Sprague Dawley, plasma, PO 5 mg/kg vs IV 1 mg/kg, read-out: F (absolute oral bioavailability)) was found to be 31%. Also, the Cmax in data set [2] (Sprague Dawley, plasma) was 348 nM.
On to `[2H]C([2H])([2H])NC(=O)c1cc2cnc(Nc3ccc(N4CCNCC4)cn3)nc2n1C1CCCC1` [Example 2, 7-cyclopentyl-2-(5-piperzin-1-yl-pyridin-2-ylamino)-7H-pyrrolo[2,3-d]pyrimidine-6-carboxylic acid methylamide-d3], for which the “AUC0-7 h of mono-methyl metabolite” value worked out at 0.066 µM·h in data set [1] and 0.128 µM·h in data set [2]. Moreover, the “Tmax of mono-methyl metabolite” value in data set [2] turned out to be 3.3 h. Moreover, the IC50 against CDK4/cyclin D1 is 0.132 µM; against CDK1/cyclin B (0.25 nM CDK1/cyclin B), over 15 µM.
With `CNC(=O)c1cc2cnc(Nc3ccc(N4CCNCC4)cn3)nc2n1C1CCCC1` [Comparator B, 7-cyclopentyl-2-(5-piperazin-1-yl-pyridin-2-ylamino)-7H-pyrrolo[2,3-d]pyrimidine-6-carboxylic acid methylamide, reference compound], the “AUC0-7 h of mono-methyl metabolite” value stood at 0.156 µM·h in data set [1] and 0.372 µM·h in data set [2]. For the same molecule, in data set [2], the “Tmax of mono-methyl metabolite” value amounted to 4.3 h.
